Where “and” joins values, the source holds several entries; their conditions need not be identical. Identical values can stand only once.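 Assay format: 96-well plates, 48-hour exposure. GI50 marks 50% less growth. TGI: total growth inhibition.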
Assays:
Experiment in all cases: inhibition of tumour cell growth, NCI panel, 48 h
[1] = system: CAKI-1 renal
[2] = system: HL-60(TB) leukemia
[3] = system: IGROV1 ovarian
[4] = system: MDA-MB-435
[5] = system: NCI-H23 lung
[6] = system: NCI-H522 lung
[7] = system: OVCAR-8 ovarian
[8] = system: SK-MEL-28 melanoma
[9] = system: SN12C renal
[10] = system: SNB-19 CNS

Compound	TGI [1]	TGI [2]	TGI [3]	TGI [4]	TGI [5]	TGI [6]	TGI [7]	TGI [8]	TGI [9]	TGI [10]	GI50 [1]	GI50 [2]	GI50 [3]	GI50 [4]	GI50 [5]	GI50 [6]	GI50 [7]	GI50 [8]	GI50 [9]	GI50 [10]
NC(=O)/C=C/c1c[nH]c2nccnc12	> 100 µM	> 38.7 µM	> 28.8 µM	13.2 µM	2.74 µM	45.9 µM	> 87.5 µM	4.26 µM	11.4 µM	> 16.7 µM	–	–	–	–	–	–	–	–	–	–
C=CC(=O)N1CCC(CNc2ncnc(N)c2-c2ccc(Oc3ccccc3)cc2)CC1	> 100 µM	46.4 µM	35.8 µM	97.5 µM	> 100 µM	32.5 µM	> 100 µM	> 100 µM	> 100 µM	> 100 µM	22.5 µM	19.9 µM	8.51 µM	27.9 µM	29.8 µM	10.4 µM	27.5 µM	34.4 µM	25.2 µM	32.8 µM
C#CCn1c2c(c3ccccc3c1=O)C(=O)c1ccccc1-2	24.3 µM	10.2 µM	80.7 µM	> 100 µM	40.4 µM	42.2 µM	82.3 µM	> 100 µM	81.6 µM	–	–	–	–	–	–	–	–	–	–	–
CCN1C(=O)N[C@H]2[C@@H]3NC(=O)c4ccc(Cl)n4[C@@H]3C[C@]21O	> 100 µM	0.634 µM	6.46 µM	11.1 µM	4.52 µM	1.76 µM	9.01 µM	3.03 µM	9.13 µM	9.25 µM	2.87 µM	0.242 µM	0.471 µM	1.05 µM	0.531 µM	0.288 µM	0.533 µM	0.311 µM	0.42 µM	0.31 µM
COc1ccc2c(ccc3oc([N+](=O)[O-])cc32)c1	0.755 µM	0.487 µM	3.47 µM	0.186 µM	0.605 µM	0.319 µM	1.2 µM	0.323 µM	7.03 µM	2.96 µM	0.128 µM	0.0514 µM	0.199 µM	0.047 µM	0.203 µM	0.0952 µM	0.18 µM	0.118 µM	0.274 µM	0.294 µM
COc1ccccc1N1CCN(CC(O)Cn2c(=O)c3c(OC)nc(C)cc3c(=O)n2-c2ccccc2)CC1 (stereo unspecified)	> 100 µM	> 100 µM	> 100 µM	> 100 µM	> 100 µM	> 100 µM	–	> 100 µM	> 100 µM	> 100 µM	32.7 µM	> 100 µM	41 µM	> 100 µM	59.1 µM	> 100 µM	–	> 100 µM	> 100 µM	25.5 µM
COc1cc(-c2cn(-c3ccc(F)cc3)c(=O)[nH]2)cc(OC)c1OC	> 100 µM	> 100 µM	> 100 µM	> 100 µM	> 100 µM	> 100 µM	> 100 µM	> 100 µM	> 100 µM	> 100 µM	> 100 µM	> 100 µM	> 100 µM	> 100 µM	> 100 µM	> 100 µM	> 100 µM	> 100 µM	9.93 µM	> 100 µM
COc1ccc2c3c1OC1C4(CCC5C(C2)N(CC2CC2)CCC351)OCCO4 (stereo unspecified)	> 100 µM	> 100 µM	> 100 µM	> 100 µM	> 100 µM	> 100 µM	> 100 µM	> 100 µM	> 100 µM	> 100 µM	–	–	–	–	–	–	–	–	–	–
CN1CCN(c2ccc(NC(=O)c3cncnc3Nc3ccc4c(ccn4Cc4cccc(F)c4)c3)cc2)CC1	7.75 µM	1.4 µM	6.92 µM	1.2 µM	9.14 µM	6.59 µM	10.6 µM	1.01 µM	8.15 µM	8.96 µM	3.6 µM	0.673 µM	2.29 µM	0.625 µM	4.35 µM	1.63 µM	3.8 µM	0.533 µM	3.83 µM	4.42 µM
CC[C@H](C)C(=O)O[C@H]1C[C@@H](C)C=C2C=C[C@H](C)[C@H](CC[C@@H]3C[C@@H](O)CC(=O)O3)[C@H]21	6.59 µM and 6.21 µM and 4.78 µM	60.6 µM and 50.6 µM and > 30 µM	23.2 µM and 29 µM and > 30 µM	> 100 µM	–	8.53 µM and 22.3 µM	> 100 µM	> 100 µM and 27.1 µM and > 30 µM	–	–	2.14 µM and 1.9 µM	15.9 µM and 19.9 µM	3.22 µM and 5.31 µM	20.2 µM and 15 µM	5.37 µM and 8.14 µM	1.98 µM and 1.66 µM	2.96 µM and 6.79 µM	14.4 µM and 10.4 µM	3.02 µM	–
NC1=CC(=O)C(=O)c2ccccc21	53.3 µM	43.8 µM	39.5 µM	3.41 µM	34.6 µM	38.2 µM	47.3 µM	22.3 µM	17.4 µM	79.9 µM	19.7 µM	11.9 µM	19.7 µM	1.84 µM	13.2 µM	16.6 µM	14.8 µM	8.81 µM	2.77 µM	20.4 µM
Cc1ccc(Nn2c(SCC(=O)Nc3nc(-c4ccccc4)cs3)nc(C)c2C)cc1	6.1 µM	39.1 µM	> 100 µM	9.54 µM	> 100 µM	86.8 µM	> 100 µM	–	14.2 µM	> 100 µM	1.86 µM	4.64 µM	4.59 µM	2.66 µM	3.42 µM	2.97 µM	3.79 µM	–	3.2 µM	7.5 µM
CCN(CC)CCC(CNc1c(C)cnc2cc(Cl)ccc12)c1ccc(Cl)c(Cl)c1 (stereo unspecified)	11.5 µM	5.12 µM	12.1 µM	3.4 µM	20.6 µM	16 µM	24.9 µM	3.83 µM	23.7 µM	18 µM	2.59 µM	2.13 µM	2.26 µM	1.77 µM	5.62 µM	3.78 µM	9.89 µM	1.97 µM	7.67 µM	4.79 µM
Nc1nc(N)c2cc(S(=O)(=O)c3ccccc3)ccc2n1	> 100 µM	31.5 µM	> 100 µM	> 100 µM	> 100 µM	> 100 µM	> 100 µM	> 100 µM	> 100 µM	> 100 µM	3.45 µM	1.64 µM	4.59 µM	0.487 µM	3.03 µM	4.56 µM	1.31 µM	10.6 µM	3.21 µM	6.84 µM

From PubChem BioAssay (NCI)
